Laboratory results reported in patent EP0243717A1 (priority 1986, dated 1987).
Converted amounts (≈) assume the structure as drawn. “And” between values parts separate entries of the source, which are not always exact repeats. Equal entries are not always repeated. Where two headings read alike, the source gives them in different places.

How the values were obtained:
[1] = tested on: Bcteroides fragilis KB 169 (ATCC 23745); type: cell-based; conditions: Medium B
Source text: (§1) For reference, the minimum growth inhibition concentrations (MIC) to various bacteria of above five drugs and Lankacidin C are shown in Table 3.

[2] = tested on: Peptococcus variabilis KB 235 (ATCC 14955); type: cell-based; conditions: Medium B
Source text: as §1

[3] = tested on: piricularia oryzae KF 180; assay: microbe, parasite or virus in culture; type: cell-based
Xanthomonas oryzae KB 88 = assay: microbe, parasite or virus in culture; type: cell-based
[4] = tested on: Clostridium perfringens KB 129 (ATCC 3624); assay: microbe, parasite or virus in culture; type: cell-based
T. hyo = assay: Example 7: induced swine dysentery trial, drug in feed; type: in vivo, pigs; conditions: for No. Pig Days with General Appearance Score of: 1 / No. Pig Days with Hydration Score of: 1: 1 = Normal; for No. Pig Days with General Appearance Score of: 2: 2 = Depressed; for No. Pig Days with General Appearance Score of: 3: 3 = Moribund; for No. Pig Days with General Appearance Score of: 4: 4 = Dead; for No. Pig Days with Hydration Score of: 2: 2 = mild; for No. Pig Days with Hydration Score of: 3: 3 = moderate; for No. Pig Days with Hydration Score of: 4: 4 = severe
Description: The test is conducted using 40 crossbred pigs approximately 6 weeks of age, weighing 12.8 kg at receipt. Pigs are assigned to one of the treatments outlined in the Table below, stratified by body weight and sex, and randomly assigned to pens within a randomized block design. Sexes intermixed within pens and proportioned among treatment groups. Treatments groups are randomly assigned to pens within experimental blocks to alleviate location variables (see Table 9). Each treatment group consists of two replicate pens with five pigs per pen.
All pigs are adjusted to the test facility for four days prior to their challenge with 100 ml of T. hvodvsenteriae (T. hvo) broth culture. Respective treatment diets are provided 1 hr postchallenge and continued ad libitum for three weeks followed by a two week nonmedicated period. Clinical signs are noted and recorded for each pig each day postchallenge.
Pigs are challenged on day 5 and then provided respective treatment diets immediately postchallenge for a 21-day period followed by a 14-day nonmedication period.
Pigs are challenged on day 5 and then provided respective treatment diets immediately postchallenge for a 21-day period followed by a 14-day nonmedicated period.

Treponema hyodysenteriae [5] = type: in vivo, pigs
Treponema hyodysenteriae [6] = type: in vivo, pigs; remark: listed apart in the source
[7] = Treatment C, 50 g/ton Carbadox, Total
[8] = Treatment C, 50 g/ton Carbadox, per pen (2, 7)
[9] = Group III, 5 additional healthy pigs penned with the treated pigs
[10] = Group III, second line of 5 pigs (additional healthy pigs)
[11] = […], 0 normal, 1 diarrhea, 2 feces cruentae
[12] = Treatment A, 20 g/ton hygromycin A, Total
[13] = Treatment A, 20 g/ton hygromycin A, per pen (1, 4)
[14] = Treatment B, 10 g/ton hygromycin A, Total
[15] = Treatment B, 10 g/ton hygromycin A, per pen (5, 8)
[16] = Treatment C, 50 g/ton hygromycin A, Total
[17] = Treatment C, 50 g/ton hygromycin A, per pen (2, 7)
[18] = Clostridium perfringens, ATCC3624

Structure (SMILES): CC(=O)C(=O)N[C@@H]1/C=C(C)/C=C/[C@@H](O)C/C=C(C)/C=C/[C@@H](O)C[C@H]2OC(=O)[C@]1(C)C(=O)[C@@H]2C [Lankacidin C]
- MIC [1]: 0.78 µg/mL (≈ 1.7 µM)
- MIC [2]: 0.4 µg/mL (≈ 0.87 µM)
- MIC [3]: >100 µg/mL
- MIC (Xanthomonas oryzae KB 88; Medium E): < 3.12 µg/mL
- MIC ([4]; Medium B): 3.12 µg/mL (≈ 6.79 µM)

Structure (SMILES): COC(=O)N/N=C/c1c[n+]([O-])c2ccccc2[n+]1[O-] [Carbadox, carbadox, reference compound]
- No. Pig Days with General Appearance Score of: 1 (T. hyo; [7]): 349 pig days
- No. Pig Days with General Appearance Score of: 2 (T. hyo; [7]): 1 pig days
- No. Pig Days with General Appearance Score of: 3 (T. hyo; [7]): 0 pig days
- No. Pig Days with General Appearance Score of: 4 (T. hyo; [7]): 0 pig days
- No. Pig Days with General Appearance Score of: 1 (T. hyo; [8]): 174 pig days and 175 pig days
- No. Pig Days with General Appearance Score of: 3 (T. hyo; [8]): 0 pig days
- No. Pig Days with General Appearance Score of: 4 (T. hyo; [8]): 0 pig days

Structure (SMILES): CC(=O)[C@H]1O[C@@H](Oc2ccc(/C=C(\C)C(=O)N[C@@H]3[C@H](O)[C@@H](O)[C@H]4OCO[C@H]4[C@@H]3O)cc2O)[C@@H](O)[C@@H]1O [Hygromycin A, hygromycin A]
- MIC [1]: 50 µg/mL (≈ 97.8 µM)
- Average diarrhea index During observation (Treponema hyodysenteriae [5]; [9]): 0
- Change in morbidity ( %) Commencement of observation (Treponema hyodysenteriae [5]; [9]): 0%
- Change in morbidity ( %) During observation (Treponema hyodysenteriae [5]; [9]): 0%
- Mortality (%) (Treponema hyodysenteriae [5]; [9]): 0%
- Mortality (%) (Treponema hyodysenteriae [5]; Group III, 5 infected treated pigs): 0%
- Pathogen Detection Rate (%) Commencement of observation (Treponema hyodysenteriae [5]; [10]): 0%
- Pathogen Detection Rate (%) During observation (Treponema hyodysenteriae [5]; [10]): 0%
- attack of the disease in infected pigs or healthy pigs (Treponema hyodysenteriae [5]; Group III, during the observation period): no attack of the disease is observed
- swine dysentery symptoms of infected pigs (Treponema hyodysenteriae [5]; Group III, during the therapeutic period and at the starting time of observation): no swine dysentery symptoms
- Average diarrhea index pre-medication (Treponema hyodysenteriae [5]; [11]): 0
- Average diarrhea index During medication (Treponema hyodysenteriae [5]; pig, in vivo): 0
- Average diarrhea index During observation (Treponema hyodysenteriae [5]; pig, in vivo): 0
- Change in morbidity ( %) Commencement of observation (Treponema hyodysenteriae [5]; pig, in vivo): 0%
- Change in morbidity ( %) During medication (Treponema hyodysenteriae [5]; pig, in vivo): 0/5
- Change in morbidity ( %) During observation (Treponema hyodysenteriae [5]; pig, in vivo): 0%
- Pathogen Detection Rate (%) Commencement of observation (Treponema hyodysenteriae [5]; pig, in vivo): 0%
- Pathogen Detection Rate (%) During medication (Treponema hyodysenteriae [5]; pig, in vivo): 0%
- Pathogen Detection Rate (%) During observation (Treponema hyodysenteriae [5]; pig, in vivo): 0%
- Pathogen Detection Rate (%) pre-infection (Treponema hyodysenteriae [5]; pig, in vivo): 0%
- MIC [3]: >100 µg/mL
- MIC (Xanthomonas oryzae KB 88; Medium E): 50 µg/mL (≈ 97.8 µM)
- No. Pig Days with General Appearance Score of: 1 (T. hyo; [12]): 349 pig days
- No. Pig Days with General Appearance Score of: 2 (T. hyo; [12]): 1 pig days
- No. Pig Days with Hydration Score of: 2 (T. hyo; [12]): 0 pig days
- No. Pig Days with General Appearance Score of: 3 (T. hyo; [12]): 0 pig days
- No. Pig Days with Hydration Score of: 3 (T. hyo; [12]): 0 pig days
- No. Pig Days with General Appearance Score of: 4 (T. hyo; [12]): 0 pig days
- No. Pig Days with Hydration Score of: 4 (T. hyo; [12]): 0 pig days
- No. Pig Days with General Appearance Score of: 1 (T. hyo; [13]): 174 pig days and 175 pig days
- No. Pig Days with Hydration Score of: 2 (T. hyo; [13]): 0 pig days
- No. Pig Days with General Appearance Score of: 3 (T. hyo; [13]): 0 pig days
- No. Pig Days with Hydration Score of: 3 (T. hyo; [13]): 0 pig days
- No. Pig Days with General Appearance Score of: 4 (T. hyo; [13]): 0 pig days
- No. Pig Days with Hydration Score of: 4 (T. hyo; [13]): 0 pig days
- No. Pig Days with Hydration Score of: 1 (T. hyo; Treatment A, 20 g/ton, Total): 350 pig days
- No. Pig Days with Hydration Score of: 1 (T. hyo; Treatment A, 20 g/ton, per pen (1, 4)): 175 pig days
- No. Pig Days with General Appearance Score of: 1 (T. hyo; [14]): 349 pig days
- No. Pig Days with General Appearance Score of: 2 (T. hyo; [14]): 1 pig days
- No. Pig Days with Hydration Score of: 2 (T. hyo; [14]): 4 pig days
- No. Pig Days with General Appearance Score of: 3 (T. hyo; [14]): 0 pig days
- No. Pig Days with Hydration Score of: 3 (T. hyo; [14]): 0 pig days
- No. Pig Days with General Appearance Score of: 4 (T. hyo; [14]): 0 pig days
- No. Pig Days with Hydration Score of: 4 (T. hyo; [14]): 0 pig days
- No. Pig Days with General Appearance Score of: 1 (T. hyo; [15]): 175 pig days and 174 pig days
- No. Pig Days with Hydration Score of: 2 (T. hyo; [15]): 2 pig days
- No. Pig Days with General Appearance Score of: 3 (T. hyo; [15]): 0 pig days
- No. Pig Days with Hydration Score of: 3 (T. hyo; [15]): 0 pig days
- No. Pig Days with General Appearance Score of: 4 (T. hyo; [15]): 0 pig days
- No. Pig Days with Hydration Score of: 4 (T. hyo; [15]): 0 pig days
- No. Pig Days with Hydration Score of: 1 (T. hyo; Treatment B, 10 g/ton, Total): 346 pig days
- No. Pig Days with Hydration Score of: 1 (T. hyo; Treatment B, 10 g/ton, per pen (5, 8)): 173 pig days
- No. Pig Days with Hydration Score of: 2 (T. hyo; [16]): 3 pig days
- No. Pig Days with Hydration Score of: 3 (T. hyo; [16]): 0 pig days
- No. Pig Days with Hydration Score of: 4 (T. hyo; [16]): 0 pig days
- No. Pig Days with Hydration Score of: 2 (T. hyo; [17]): 2 pig days and 1 pig days
- No. Pig Days with Hydration Score of: 3 (T. hyo; [17]): 0 pig days
- No. Pig Days with Hydration Score of: 4 (T. hyo; [17]): 0 pig days
- No. Pig Days with Hydration Score of: 1 (T. hyo; Treatment C, printed 50 g/ton, Total): 347 pig days
- No. Pig Days with Hydration Score of: 1 (T. hyo; Treatment C, printed 50 g/ton, per pen (2, 7), row): 173 pig days and 174 pig days
- MIC ([4]; Medium B): 6.25 µg/mL (≈ 12.2 µM)
- Pathogen Detection Rate (%) During medication days 31 to 120 (Treponema hyodysenteriae [6]; Group III, hygromycin A 0.5mg/liter drinking water, rectal swabs): 0/12
- Mortality (Treponema hyodysenteriae [6]; Group III: infected, hygromycin A 0.5mg/liter drinking water): 0
- Pathogen Detection Rate (%) Withdrawal days 31 to 120 (Treponema hyodysenteriae [6]; Group III, after end of medication, rectal swabs): 0/12
- Pathogen Detection Rate (%) Post infecting days 1 to 3 Before medication (Treponema hyodysenteriae [6]; Group III, rectal swabs): 10/12
- Pathogen Detection Rate (%) Prein-fecting (Treponema hyodysenteriae [6]; Group III, rectal swabs): 0%
- Average diarrhea index During medication (Treponema hyodysenteriae [6]; [11]): 0.22
- Average diarrhea index Pre-medication (Treponema hyodysenteriae [6]; [11]): 0
- Gross pathological examination of the colon (Treponema hyodysenteriae [6]; […], necropsy after the experiment): normal
- Change in morbidity (%) Third day (Treponema hyodysenteriae [6]; pig, in vivo): 0%
- Change in morbidity (%) Thirtieth day (Treponema hyodysenteriae [6]; pig, in vivo): 0%

Structure (SMILES): CCC[C@@H]1C[C@@H](C(=O)N[C@@H]([C@H]2O[C@H](SC)[C@H](O)[C@@H](O)[C@H]2O)[C@@H](C)O)N(C)C1 [Lincomycin]
- MIC ([1]; read-out: MIC): 0.4 µg/mL (≈ 0.984 µM)
- MIC ([2]; read-out: MIC): 0.78 µg/mL (≈ 1.92 µM)
- MIC [3]: > 100 µg/mL
- MIC (Xanthomonas oryzae KB 88; Xanthomonas oryzae, KB88): > 100 µg/mL
- MIC [4, 18]: 0.4 µg/mL (≈ 0.984 µM)

Structure (SMILES): C=C[C@]1(C)C[C@@H](OC(=O)CSCCN(CC)CC)[C@]2(C)[C@H](C)CC[C@]3(CCC(=O)[C@H]32)[C@@H](C)[C@@H]1O [Dynamutilin, tiamulin]
- MIC ([1]; read-out: MIC): < 0.2 µg/mL
- MIC ([2]; read-out: MIC): 0.4 µg/mL (≈ 0.81 µM)
- MIC [3]: > 100 µg/mL
- MIC (Xanthomonas oryzae KB 88; Xanthomonas oryzae, KB88): < 3.12 µg/mL
- MIC [4, 18]: 0.78 µg/mL (≈ 1.58 µM)
